Structures can show the parent of a compound that is named as a salt. Numbers after ± are expanded uncertainties.
Settings: 101.33 kPa, Liquid; for viscosity: Capillary tube (Ostwald / Ubbelohde) method; for mass density: Pycnometric method

SMILES	viscosity (293.15 K)	mass density (293.15 K)	viscosity (298.15 K)	mass density (298.15 K)	viscosity (303.15 K)	mass density (303.15 K)	viscosity (308.15 K)	mass density (308.15 K)	viscosity (313.15 K)	mass density (313.15 K)	viscosity (318.15 K)	mass density (318.15 K)	viscosity (323.15 K)	mass density (323.15 K)	viscosity (328.15 K)	mass density (328.15 K)	viscosity (333.15 K)	mass density (333.15 K)	viscosity (338.15 K)	mass density (338.15 K)
CCOC(=O)CC(O)(CC(=O)OCC)C(=O)OCC [triethyl citrate]	44.12 ± 4.4 mPa·s	1138.4 ± 4.7 kg/m3	32.1 ± 3.2 mPa·s	1134.5 ± 4.7 kg/m3	20.79 ± 2.1 mPa·s	1131.1 ± 4.7 kg/m3	16.55 ± 1.7 mPa·s	1126.2 ± 4.7 kg/m3	13.18 ± 1.3 mPa·s	1122.4 ± 4.7 kg/m3	10.24 ± 1 mPa·s	1116.5 ± 4.6 kg/m3	8.62 ± 0.87 mPa·s	1112.1 ± 4.6 kg/m3	7.23 ± 0.73 mPa·s	1106.6 ± 4.6 kg/m3	6.41 ± 0.65 mPa·s	1102.8 ± 4.6 kg/m3	5.71 ± 0.57 mPa·s	1097.3 ± 4.6 kg/m3
CCCCOC(=O)C(C)O (centres undefined) [butyl 2-hydroxypropanoate]	3.87 ± 0.39 mPa·s	981.5 ± 4 kg/m3	3.26 ± 0.33 mPa·s	977 ± 4 kg/m3	2.81 ± 0.28 mPa·s	973.1 ± 4 kg/m3	2.42 ± 0.24 mPa·s	968.4 ± 4 kg/m3	2.15 ± 0.22 mPa·s	963.5 ± 4 kg/m3	1.9 ± 0.19 mPa·s	958.5 ± 3.9 kg/m3	1.69 ± 0.17 mPa·s	953.9 ± 3.9 kg/m3	1.55 ± 0.16 mPa·s	948.9 ± 3.9 kg/m3	1.43 ± 0.14 mPa·s	944.1 ± 3.9 kg/m3	1.3 ± 0.13 mPa·s	940.1 ± 3.9 kg/m3
CC(=O)OCC(COC(C)=O)OC(C)=O [glyceryl triethanoate]	21.48 ± 2.2 mPa·s	1158.3 ± 4.7 kg/m3	16.36 ± 1.6 mPa·s	1152.9 ± 4.7 kg/m3	12.5 ± 1.3 mPa·s	1147.4 ± 4.7 kg/m3	9.95 ± 1 mPa·s	1142 ± 4.6 kg/m3	8.21 ± 0.82 mPa·s	1136.6 ± 4.6 kg/m3	6.75 ± 0.68 mPa·s	1131.1 ± 4.6 kg/m3	5.66 ± 0.57 mPa·s	1125.7 ± 4.6 kg/m3	4.82 ± 0.48 mPa·s	1120.2 ± 4.6 kg/m3	4.18 ± 0.42 mPa·s	1114.8 ± 4.5 kg/m3	3.67 ± 0.37 mPa·s	1109.4 ± 4.5 kg/m3
CCOC(=O)CC(CC(=O)OCC)(OC(C)=O)C(=O)OCC [triethyl acetyl citrate]	–	1142.1 ± 5.2 kg/m3	46.55 ± 4.7 mPa·s	1137.5 ± 5.2 kg/m3	34.56 ± 3.5 mPa·s	1133.1 ± 5.2 kg/m3	25.1 ± 2.6 mPa·s	1127.6 ± 5.1 kg/m3	17.52 ± 1.8 mPa·s	1124.1 ± 5.1 kg/m3	13.81 ± 1.4 mPa·s	1118.5 ± 5.1 kg/m3	10.95 ± 1.1 mPa·s	1115.1 ± 5.1 kg/m3	8.86 ± 0.9 mPa·s	1110.1 ± 5.1 kg/m3	7.98 ± 0.81 mPa·s	1105.4 ± 5 kg/m3	7.02 ± 0.71 mPa·s	1100.5 ± 5 kg/m3
